Columns and labels:
Format in all cases: cell-based
[1] = biological target: T1, human adrenergic receptor (ADR) α1A (Homo sapiens, UniProt P35348); assay: ADRα1A activation, Ca2+ influx (Fluo-8) in overexpressing chem-1 cells; details: for ADRα1A Emax: % of maximal signal obtained by adrenaline, average (95% CI); for EC50: Ca2+ response, chem-1 cells, average (95% confidence interval), 7–9 experiments; for Emax: Chem-1
T1 construct: host or cells: rat chem-1 cells
T1 sequence (P35348 1-466): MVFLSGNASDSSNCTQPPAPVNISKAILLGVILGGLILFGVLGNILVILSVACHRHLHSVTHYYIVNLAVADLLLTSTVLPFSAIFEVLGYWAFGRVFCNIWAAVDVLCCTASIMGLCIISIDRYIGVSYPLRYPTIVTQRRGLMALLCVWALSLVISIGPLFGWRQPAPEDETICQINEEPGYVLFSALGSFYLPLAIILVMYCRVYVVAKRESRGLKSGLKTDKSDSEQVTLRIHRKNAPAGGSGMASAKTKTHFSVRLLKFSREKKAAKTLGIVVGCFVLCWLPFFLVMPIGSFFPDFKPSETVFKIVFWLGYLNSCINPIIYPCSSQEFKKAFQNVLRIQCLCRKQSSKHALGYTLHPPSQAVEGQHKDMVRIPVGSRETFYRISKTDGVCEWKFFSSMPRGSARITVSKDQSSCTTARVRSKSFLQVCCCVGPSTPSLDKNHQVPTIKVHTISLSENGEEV

[2] = biological target: T2, human adrenergic receptor (ADR) α1D (Homo sapiens, UniProt P25100); assay: ADRα1D activation, Ca2+ influx (Fluo-8) in overexpressing chem-1 cells; details: for ADRα1D Emax: % of maximal signal obtained by adrenaline, average (95% CI); for EC50: Ca2+ response, chem-1 cells, average (95% confidence interval), 7–9 experiments; for Emax: Chem-1
T2 construct: host or cells: rat chem-1 cells
T2 sequence (P25100 1-572): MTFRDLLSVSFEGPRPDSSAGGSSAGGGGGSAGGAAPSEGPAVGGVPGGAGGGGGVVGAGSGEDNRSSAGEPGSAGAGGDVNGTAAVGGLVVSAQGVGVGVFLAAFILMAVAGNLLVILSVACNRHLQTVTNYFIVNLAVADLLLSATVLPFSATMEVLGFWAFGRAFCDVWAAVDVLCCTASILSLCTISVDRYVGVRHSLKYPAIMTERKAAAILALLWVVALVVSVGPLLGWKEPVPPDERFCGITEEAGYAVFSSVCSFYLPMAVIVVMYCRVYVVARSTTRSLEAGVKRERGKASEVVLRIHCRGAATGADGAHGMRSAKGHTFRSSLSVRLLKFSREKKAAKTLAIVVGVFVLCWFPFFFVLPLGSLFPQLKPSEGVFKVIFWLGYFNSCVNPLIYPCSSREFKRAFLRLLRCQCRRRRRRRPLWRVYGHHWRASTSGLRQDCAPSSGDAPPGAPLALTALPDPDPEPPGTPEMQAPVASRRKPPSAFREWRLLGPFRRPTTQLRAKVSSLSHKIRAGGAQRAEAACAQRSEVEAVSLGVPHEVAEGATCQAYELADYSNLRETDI

[3] = biological target: T3, human trace amine-associated receptor 1 (TAAR1) (Homo sapiens, UniProt Q96RJ0); assay: TAAR1 activation, intracellular cAMP (ELISA) in HEK293T cells stably expressing human TAAR1; details: for Emax at 300 µM / Emax: HEK-293T; for Emax at 300 µM: read-out: TAAR1 effect at 300 µM, at 300 µM, % of the maximal effect obtained by phenethylamine, compounds that showed only an effect at 300 µM; for EC50: cAMP, HEK293T-hTAAR1 cells, 1 h exposure, average (95% confidence interval), 3–5 experiments
T3 construct: expressed in transfected cells
T3 sequence (Q96RJ0 1-339): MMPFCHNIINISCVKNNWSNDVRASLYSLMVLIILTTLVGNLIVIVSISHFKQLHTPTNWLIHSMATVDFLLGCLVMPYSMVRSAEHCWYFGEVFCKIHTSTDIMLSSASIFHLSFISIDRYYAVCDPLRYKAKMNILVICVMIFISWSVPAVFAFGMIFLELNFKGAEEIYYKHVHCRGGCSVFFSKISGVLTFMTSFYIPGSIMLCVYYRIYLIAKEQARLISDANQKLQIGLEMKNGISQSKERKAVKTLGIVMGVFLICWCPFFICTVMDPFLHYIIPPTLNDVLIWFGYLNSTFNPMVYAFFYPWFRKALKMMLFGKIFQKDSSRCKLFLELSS
Procedure: The cells were seeded (90,000–250,000 cells/well) in a 48-well plate two days before the assay. Two hours before the assay, the cells were incubated with the culture medium containing 10% charcoal-stripped foetal bovine serum (Gibco, Grand Island, NY, USA). The assay was performed in Earle’s balanced salt solution (EBSS) (Gibco, Paisley, UK), containing 15 mM HEPES (Gibco, Paisley, UK), 1 mM IBMX and 0.02% ascorbic acid. First, the cells were pre-incubated for 20 min in the supplemented buffer. Subsequently, the cells were exposed to the test compounds for 1 h in an incubator at 37 °C with 5% CO2. After 1 h, the buffer was discarded and the cells were lysed with 3% trichloroacetic acid and incubated at room temperature on a plate shaker for 2 h. Cell lysates were further diluted and cAMP was measured using a cAMP ELISA kit (Cayman Chemical, Ann Arbor, MI, USA), according to the manufacturer’s protocol.
Concentration–response relationships are shown as mean ± SD.

[4] = % of maximal cAMP level obtained by phenethylamine, average (95% CI)

SMILES | ADRα1A Emax [1] | EC50 [1] | ADRα1D Emax [2] | EC50 [2] | Emax at 300 µM [3] | EC50 [3] | Emax [3, 4] | Emax [1] | TAAR1 Emax [3, 4] | activation of TAAR1 ([3]; concentrations up to 300 µM) | Emax [2]
CCC(C)CC(C)N (centres unmarked) [1,3-Dimethylamylamine, 1,3-dimethylamylamine] | - | > 300 µM | - | > 300 µM | 52% | > 300 µM |  |  |  |  | 
CC(C)CC(C)N (centres unmarked) | - | > 300 µM | - | > 300 µM |  | > 300 µM |  |  |  |  | 
Oc1ccc(CC2NCCc3cc(O)c(O)cc32)cc1 (centres unmarked) [Higenamine, higenamine] | - | > 300 µM | - | > 300 µM |  | 0.98 µM | 93% |  |  |  | 
CC(C)CCCC(C)N (centres unmarked) | - | > 300 µM | - | > 300 µM | 36% | > 300 µM |  |  |  |  | 
NCCc1ccccc1 [Phenethylamine, phenethylamine] | - | > 300 µM | - | > 300 µM |  | 8.8 µM | 97% |  |  |  | 
CNC(C)C(O)c1ccc(O)cc1 (centres unmarked) [Methylsynephrine] |  | 44 µM | - | > 300 µM |  | > 300 µM |  | 16% | - | did not activate | 
NCC(O)c1ccc(O)cc1 (centres unmarked) [p-Octopamine, p-octopamine] |  | 11 µM |  | 1.2 µM |  | 46 µM | 85% | 87% |  |  | 100%
CN(C)CCc1ccc(O)cc1 [Hordenine, hordenine] | - | > 300 µM |  | 34 µM |  | 47 µM | 82% |  |  |  | 23%
CNCC(O)c1ccccc1 (centres unmarked) [Halostachine, halostachine] |  | 8.7 µM |  | 2.1 µM |  | 74 µM | 104% | 59% |  |  | 82%
CNCC(O)c1ccc(O)cc1 (centres unmarked) [p-Synephrine, p-synephrine] |  | 2.4 µM |  |  |  | 92 µM | 85% | 82% |  |  | 80%
CN(C)CCc1ccccc1 [Dimethylphenethylamine, N,N-dimethylphenethylamine] | - | > 300 µM |  | 8.4 µM |  | 21 µM | 64% |  |  |  | 7.9%
CC(CN)c1ccccc1 (stereo not drawn) [β-Methylphenethyl-amine, beta-methylphenethylamine] | - | > 300 µM | - | > 300 µM |  | 2.1 µM | 77% |  |  |  | 
CC(C)NCC(O)c1ccc(O)cc1 (centres unmarked) [Isopropyloctopamine, isopropyloctopamine] | - | > 300 µM | - | > 300 µM |  | 1.8 µM | 40% |  |  |  | 
NCCc1ccc(O)cc1 [Tyramine, tyramine] | - | > 300 µM | - | > 300 µM |  | 9.5 µM | 77% |  |  |  | 
CN(C)CCO [Dimethylaminoethanol, dimethylaminoethanol] | - | > 300 µM | - | > 300 µM | ~5% | > 300 µM |  |  |  |  | 

— publication PMC11174489, “In Vitro Activation of Human Adrenergic Receptors and Trace Amine-Associated Receptor 1 by Phenethylamine Analogues Present in Food Supplements” (Nutrients, 2024)
